Source: patent US20230057071A1 (NOVARTIS AG, priority 2019, published 2023)
One block for each compound: values may come before it.

How the values were obtained:
[1] = cited from earlier work
[2] = tested on: AML PDX model HAMLX5343 (KRASG12D, WT1, PTPN11); assay type: in vivo
Procedure: Initial group size: 4 animals. […] All final data were recorded on day 56.
(§1) The activity of MBG453 with and without decitabine was evaluated in two AML patient-derived xenograft (PDX) models, HAMLX21432 and HAMLX5343. Decitabine (TCI America) was formulated in dextrose 5% in water (D5W) freshly prior to each dose and administered daily for 5 days. It was administered at 10 mL/kg intraperitoneal (i.p.), for a final dose […]. MBG453 was formulated to a final concentration of 1 mg/mL in PBS. It was administered weekly at a volume of 10 mL/kg, i.p., for a final dose of 10 mg/kg, with treatment initiating on dosing day 6, 24 hours after the final dose of decitabine.

[3] = tested on: AML PDX model HAMLX21432 (IDH1R132H); assay type: in vivo
Procedure: MBG453 was administered i.p. at 10 mg/kg, once weekly (starting at day 6 of dosing) either as a single agent or in combination with decitabine i.p. at 1 mg/kg, once daily for a total of 5 doses (from initiation of dosing). Initial group size: 4 animals. […] All final data were recorded on day 56. Leukemic burden was measured as a percentage of human CD45+ cells in peripheral blood by FACS analysis.
as §1
Treatments were initiated on the day of randomization and continued for 21 days.

[4] = tested on: THP-1 cells engineered to overexpress TIM-3; experiment: T cell-mediated killing of TIM-3-overexpressing versus parental THP-1 cells (co-culture, flow cytometry); assay type: cell-based, human; conditions: 25 μg/ml; 3 days co-culture; anti-CD3/anti-CD28 beads
Procedure: The ratio between TIM-3-expressing THP-1 cells and parental THP-1 cells (“fold” in y-axis of graph) was calculated and normalized to conditions without anti-CD3/anti-CD28 bead stimulation. The x-axis of the graph denotes the stimulation amount as number of beads per cell. Data represents one of two independent experiments.
THP-1 cells express TIM-3 mRNA but low to no TIM-3 protein on the cell surface. […] TIM-3 Flag-tagged THP-1 cells were labeled with 2 μM CFSE (Thermo Fisher Scientific), and THP-1 parental cells were labeled with 2 μM CTV (Thermo Fisher Scientific), according to manufacturer instructions. Co-culture assays were performed in 96-well round-bottom plates. […] Cells were then detected and counted by flow cytometry. The ratio between TIM-3-expressing THP-1 cells and parental THP-1 cells (“fold” in y-axis of graph) was calculated and normalized to conditions without anti-CD3/anti-CD28 bead stimulation. […]

[5] = target: T1, TIM-3/Galectin-9 interaction (Homo sapiens, UniProt Q8TDQ0); experiment: Plate-based (MesoScale) competition assay of the TIM-3/Galectin-9 interaction; assay type: binding; conditions: serial dilutions of antibody; labeled Galectin-9 100 nM
T1 construct: purchased R&D Systems
Procedure: FIG. 1 is a graph depicting the impact of MBG453 on the interaction between TIM3 and galectin-9. Competition was assessed as a measure of the ability of the antibody to block Gal9-SULFOTag signal to TIM-3 receptor, which is shown on the Y-axis. Concentration of the antibody is shown on the X-axis.
TIM-3 fusion protein (R&D Systems) was coated on a standard MesoScale 96 well plate (Meso Scale Discovery) at 2 μg/ml in PBS (Phosphate Buffered Saline) and incubated for six hours at room temperature. The plate was washed three times with PBST (PBS buffer containing 0.05% Tween-20) and blocked with PBS containing 5% Probumin (Millipore) overnight at 4° C. After incubation, the plate was washed three times with PBST and unlabeled antibody (F38-2E2 (BioLegend); MBG453; MBG453 F(ab′)2; MBG453 F(ab); or control recombinant human Galectin-9 protein) diluted in Assay Diluent (2% Probumin, 0.1% Tween-20, 0.1% Triton X-100 (Sigma) with 10% StabilGuard (SurModics)), was added in serial dilutions to the plate and incubated for one hour on an orbital shaker at room temperature. […] The plate was again washed three times with PBST, and Read Buffer T (1×) was added to the plate. The plate was read on MA600 Imager, and competition was assessed as a measure of the ability of the antibody to block Gal9-SULFOTag signal to TIM-3 receptor.

[6] = tested on: rodent and cynomolgus monkey TGF-β; experiment: Species cross-reactivity of NIS793; assay type: binding
IL-1 signaling = conditions: mouse model of disease; cited from earlier work
[7] = single agent, 1 mg/kg i.p. daily x5

Compound: Nc1ncn([C@H]2C[C@H](O)[C@@H](CO)O2)c(=O)n1 [decitabine, 4-amino-1-(2-deoxy-beta-D-erythro-pentofuranosyl)-1,3,5-triazin-2(1H)-one]
response ([1]; 21 patients with myelofibrosis): 7 of 19
Grade 3/4 neutropenia ([1]; myelofibrosis cohort): 95 % of patients
Grade 3/4 thrombocytopenia ([1]; myelofibrosis cohort): 52 % of patients
leukemic burden, hCD45+ cells ([2]; group average, day 53 post-implant or day 21 post-treatment start): 1%
anti-tumor activity [2, 7]: significant anti-tumor activity
leukemic burden, hCD45+ cells in circulation ([3]; day 56 post-implantation): 66%
leukemic burden, hCD45+ cells in peripheral blood ([3]; group average, day 49 post-implant or day 14 post-treatment start, decitabine 1 mg/kg i.p. daily x5, MBG453 10 mg/kg i.p. weekly): 51%
anti-tumor activity [3, 7]: moderate anti-tumor activity

block of the interaction between TIM-3 and Galectin-9 (Gal9-SULFOTag signal to TIM-3) [5]: partially blocked
Compound: MBG453 F(ab): F(ab) fragment of MBG453
T cell-mediated killing of TIM-3-overexpressing THP-1 cells relative to parental THP-1 cells [4]: not

block of the interaction between TIM-3 and Galectin-9 (Gal9-SULFOTag signal to TIM-3) [5]: partially blocked
Compound: MBG453 F(ab′)2: F(ab′)2 fragment of MBG453

Compound: NIS793: fully human IgG2 monoclonal antibody that specifically binds and neutralizes TGF-beta 1 and 2 ligands
cross-reactivity with rodent and cynomolgus monkey TGF-β [6]: cross-reacts

Compound: anakinra: recombinant IL-1 receptor antagonist (IL-1Ra)
BM MSC frequency (IL-1 signaling): increased
platelet counts (IL-1 signaling): reduced
